Measured values published in patent US8791266B2, “Thyroid hormone β receptor agonist” (Mitsubishi Tanabe Pharma Corporation, priority 2009, dated 2014).

Legend:
[1] = molecular target: T1, Human Thyroid Hormone Receptor α1 (TRα1) (Homo sapiens, UniProt P10827); test: Transcription activation test of human thyroid hormone receptor α1 (luciferase reporter in 293T cells); format: cell-based; details: ratio TRα/TRβ of the transcription activation EC50 values
T1 construct: expressed in transfected cells; host or cells: 293T cells
T1 sequence (P10827 1-410 isoform P10827-2): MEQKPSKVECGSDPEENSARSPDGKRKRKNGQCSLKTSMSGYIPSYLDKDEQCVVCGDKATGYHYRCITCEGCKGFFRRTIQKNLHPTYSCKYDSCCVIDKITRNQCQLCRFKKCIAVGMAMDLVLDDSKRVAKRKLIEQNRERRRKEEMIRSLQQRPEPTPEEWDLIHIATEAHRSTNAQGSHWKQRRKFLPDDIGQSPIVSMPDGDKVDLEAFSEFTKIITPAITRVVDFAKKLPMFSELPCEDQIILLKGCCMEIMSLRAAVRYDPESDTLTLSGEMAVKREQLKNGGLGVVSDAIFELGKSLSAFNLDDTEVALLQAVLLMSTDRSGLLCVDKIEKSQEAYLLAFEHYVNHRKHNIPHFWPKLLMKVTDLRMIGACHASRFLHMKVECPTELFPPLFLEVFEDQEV
From the text: (§1) Transcription Activation Test of Human Thyroid Hormone Receptors α1 (TRα1) and β1 (TRβ1)
(§2) pcDNA3.1 vector (manufactured by Invitrogen) that expresses TRα1 or β1 cloned from human liver-derived cells, and firefly luciferase expression vector pDR4-LuC (manufactured by Stratagene) having a thyroid hormone response sequence to be a reporter were transfected into 293T cells cultured in Dulbecco's modified Eagle medium (DMEM) containing 10% of activated carbon/dextran-treated fetal bovine serum (FBS) by using Lipofectamine2000 (manufactured by Invitrogen). After 16 hr, the cells were plated again in a 96 well plate, and the medium was exchanged with DMEM containing 0.1% activated carbon/dextran-treated FBS. After 3 more hr, a compound diluted with dimethyl sulfoxide solution was added, and the luciferase activity after 24 hr was measured.
(§3) As a positive control, 3,3′,5-triiodo-L-thyronine (T3), which is a biological ligand, was used. The transcription activation action of the compound on TRα1 and TRβ1 was shown by each EC50 value and the maximum luciferase activity value relative to the maximum luciferase activity value of T3 as 100.

[2] = molecular target: T2, Human Thyroid Hormone Receptor β1 (TRβ1) (Homo sapiens, UniProt P10828); test: Transcription activation test of human thyroid hormone receptor β1 (luciferase reporter in 293T cells); format: cell-based; details: EC50 of transcription activation on TRβ1, 293T cells, luciferase activity after 24 hr; read-out: TRβ
T2 construct: expressed in transfected cells; host or cells: 293T cells
T2 sequence (P10828 1-461): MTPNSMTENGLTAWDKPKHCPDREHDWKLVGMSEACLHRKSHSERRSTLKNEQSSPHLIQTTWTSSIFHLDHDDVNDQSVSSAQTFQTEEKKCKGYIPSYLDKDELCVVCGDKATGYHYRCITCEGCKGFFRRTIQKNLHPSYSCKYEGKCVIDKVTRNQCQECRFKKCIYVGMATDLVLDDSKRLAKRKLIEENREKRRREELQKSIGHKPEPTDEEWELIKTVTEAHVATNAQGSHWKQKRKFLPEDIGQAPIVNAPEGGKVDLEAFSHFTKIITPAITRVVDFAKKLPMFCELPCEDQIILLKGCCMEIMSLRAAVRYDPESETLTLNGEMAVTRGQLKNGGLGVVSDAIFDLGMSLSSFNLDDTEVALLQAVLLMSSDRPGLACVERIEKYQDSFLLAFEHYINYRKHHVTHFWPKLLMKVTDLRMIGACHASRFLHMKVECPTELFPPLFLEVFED
From the text: as §1, §2, §3

SMILES	selectivity (TRα/TRβ) [1]	EC50 [2] [nM]
Cc1cc(OCC(=O)O)c2c(c1Cc1ccc(O)c(C3CCCCC3)n1)CCC2 [Example 152, ({7-[(6-cyclohexyl-5-hydroxypyridin-2-yl)methyl]-6-methyl-2,3-dihydro-1H-inden-4-yl}oxy)acetic acid]	B (2<(TRα/TRβ)<5)	5
Cc1cc(-c2cc(O)no2)c(C)c(C)c1Cc1ccc(O)c(C(C)C)n1 [Example 81, 6-[4-(3-hydroxyisoxazol-5-yl)-2,3,6-trimethylbenzyl]-2-isopropylpyridin-3-ol]	B (2<(TRα/TRβ)<5)	0.1
Cc1cc(OCC(=O)O)c(C)c(C)c1Cc1ccc(O)c(C2CCCO2)n1 (centres unmarked) [Example 6, (4-{[5-hydroxy-6-(tetrahydrofuran-2-yl)pyridin-2-yl]methyl}-2,3,5-trimethylphenoxy)acetic acid]	B (2<(TRα/TRβ)<5)	50
Cc1cc(NC(=O)CC(=O)O)c(Cl)c(C)c1Cc1ccc(O)c(C2CCCCC2)n1 [Example 54]	A (5<(TRα/TRβ))	6
Cc1cc(CCC(=O)O)c(C)c(C)c1Cc1ccc(O)c(C2CCCCC2)n1 [Example 26, 3-{4-[(6-cyclohexyl-5-hydroxypyridin-2-yl)methyl]-2,3,5-trimethylphenyl}propanoic acid]	C (2>(TRα/TRβ))	6
Cc1cc(OC(C)(C)C(=O)O)cc(C)c1Cc1ccc(O)c(C2CCCCC2)n1 [Example 16, 2-{4-[(6-cyclohexyl-5-hydroxypyridin-2-yl)methyl]-3,5-dimethylphenoxy}-2-methylpropanoic acid]	B (2<(TRα/TRβ)<5)	20
Cc1cc(OCc2noc(=O)[nH]2)c(F)c(C)c1Cc1ccc(O)c(-c2cccc(N3CCCC3)c2)n1 [Example 206, 3-[(2-fluoro-4-{[5-hydroxy-6-(3-pyrrolidin-1-ylphenyl)pyridin-2-yl]methyl}-3,5-dimethylphenoxy)methyl]-1,2,4-oxadiazol-5(4H)-one]	A (5<(TRα/TRβ))	3
COCC1(c2nc(Cc3c(C)cc(OCc4noc(=O)[nH]4)c(F)c3C)ccc2O)CCCCC1 [Example 268, 3-{[2-fluoro-4-({5-hydroxy-6-[1-(methoxymethyl)cyclohexyl]pyridin-2-yl}methyl)-3,5-dimethylphenoxy]methyl}-1,2,4-oxadiazol-5(4H)-one]	B (2<(TRα/TRβ)<5)	1
Cc1cc(NC(=O)CC(=O)O)cc(C)c1Cc1ccc(O)c(-c2ccccc2)n1 [Example 22, 3-({4-[(5-hydroxy-6-phenylpyridin-2-yl)methyl]-3,5-dimethylphenyl}amino)-3-oxopropanoic acid]	A (5<(TRα/TRβ))	200
Cc1cc(OCc2noc(=O)[nH]2)c(C)c(C)c1Cc1ccc(O)c(C2CCCCC2)n1 [Example 34, 3-({4-[(6-cyclohexyl-5-hydroxypyridin-2-yl)methyl]-2,3,5-trimethylphenoxy}methyl)-1,2,4-oxadiazol-5(4H)-one]	B (2<(TRα/TRβ)<5)	0.4
Cc1cc(OCc2noc(=O)[nH]2)c(C)c(C)c1Cc1ccc(O)c(C(C)C)n1 [Example 31, 3-({4-[(5-hydroxy-6-isopropylpyridin-2-yl)methyl]-2,3,5-trimethylphenoxy}methyl)-1,2,4-oxadiazol-5(4H)-one]	B (2<(TRα/TRβ)<5)	0.2
Cc1cc(OCc2noc(=O)[nH]2)c(F)c(C)c1Cc1ccc(O)c(C(C)C)n1 [Example 37, 3-({2-fluoro^-4-[(5-hydroxy-6-isopropylpyridin-2-yl)methyl]-3,5-dimethylphenoxy}methyl)-1,2,4-oxadiazol-5(4H)-one]	B (2<(TRα/TRβ)<5)	0.1
Cc1cc(OCc2noc(=O)[nH]2)c(C)c(C)c1Oc1ccc(O)c(C(C)C)n1 [Example 36, 3-({4-[(5-hydroxy-6-isopropylpyridin-2-yl)oxy]-2,3,5-trimethylphenoxy}methyl)-1,2,4-oxadiazol-5(4H)-one]	C (2>(TRα/TRβ))	3
Cc1cc(OCc2noc(=O)[nH]2)cc(C)c1Cc1ccc(O)c(C(C)C)n1 [Example 27, 3-({4-[(5-hydroxy-6-isopropylpyridin-2-yl)methyl]-3,5-dimethylphenoxy}methyl)-1,2,4-oxadiazol-5(4H)-one]	C (2>(TRα/TRβ))	0.3
Cc1cc(OCc2noc(=O)[nH]2)c(C)c(C)c1Cc1ccc(O)c(C2CCCCO2)n1 (centres unmarked) [Example 35, 3-[(4-{[5-hydroxy-6-(tetrahydro-2H-pyran-2-yl)pyridin-2-yl]methyl}-2,3,5-trimethylphenoxy)methyl]-1,2,4-oxadiazol-5(4H)-one]	B (2<(TRα/TRβ)<5)	9
CCCOc1cccc(-c2nc(Cc3c(C)cc(OCc4noc(=O)[nH]4)c(F)c3C)ccc2O)c1 [Example 236, 3-{2-fluoro-4-[5-hydroxy-6-(3-propoxy-phenyl)-pyridin-2-ylmethyl]-3,5-dimethyl-phenoxymethyl}-1,2,4-oxadiazol-5(4H)-one]	A (5<(TRα/TRβ))	3

Continued by falling EC50 [2], values first:

selectivity (TRα/TRβ) [1]	EC50 [2] [nM]	SMILES
B (2<(TRα/TRβ)<5)	20	Cc1cc(OC(C)(C)C(=O)O)c(C)c(C)c1Cc1ccc(O)c(C2CCCCC2)n1 [Example 17, 2-{4-[(6-cyclohexyl-5-hydroxypyridin-2-yl)methyl]-2,3,5-trimethylphenoxy}-2-methylpropanoic acid]
B (2<(TRα/TRβ)<5)	10	Cc1cc(OC(C)C(=O)O)cc(C)c1Cc1ccc(O)c(C2CCCCC2)n1 (centres unmarked) [Example 14, 2-{4-[(6-cyclohexyl-5-hydroxypyridin-2-yl)methyl]-3,5-dimethylphenoxy}propanoic acid]
C (2>(TRα/TRβ))	4	Cc1cc(NC(=O)C(=O)O)c(C)c(C)c1Cc1ccc(O)c(C2CCCCC2)n1 [Example 20, ({4-[(6-cyclohexyl-5-hydroxypyridin-2-yl)methyl]-2,3,5-trimethylphenyl}amino)(oxo)acetic acid]
C (2>(TRα/TRβ))	1	Cc1cc(CC(F)C(=O)O)c(C)c(C)c1Cc1ccc(O)c(C2CCCCC2)n1 (centres unmarked) [Example 136, 3-{4-[(6-cyclohexyl-5-hydroxypyridin-2-yl)methyl]-2,3,5-trimethylphenyl}-2-fluoropropanoic acid]
C (2>(TRα/TRβ))	1	Cc1cc(/C=C/C(=O)O)c(C)c(C)c1Cc1ccc(O)c(C2CCCCC2)n1 [Example 25, (2E)-3-{4-[(6-cyclohexyl-5-hydroxypyridin-2-yl)methyl]-2,3,5-trimethylphenyl}acrylic acid]
B (2<(TRα/TRβ)<5)	1	Cc1cc(OCC(=O)O)c(F)c(C)c1Cc1ccc(O)c(C(C)C)n1 [Example 11, {2-fluoro-4-[(5-hydroxy-6-isopropylpyridin-2-yl)methyl]-3,5-dimethylphenoxy}acetic acid]
B (2<(TRα/TRβ)<5)	0.7	Cc1cc(OCC(=O)O)c(F)c(C)c1Cc1ccc(O)c(C2CCCCC2)n1 [Example 12, {4-[(6-cyclohexyl-5-hydroxypyridin-2-yl)methyl]-2-fluoro-3,5-dimethylphenoxy}acetic acid]
A (5<(TRα/TRβ))	0.7	CCc1cc(OCC(=O)O)c(C)c(C)c1Cc1ccc(O)c(-c2cccc(F)c2)n1 [Example 269, (5-ethyl-4-{[6-(3-fluorophenyl)-5-hydroxypyridin-2-yl]methyl}-2,3-dimethylphenoxy)acetic acid]
B (2<(TRα/TRβ)<5)	0.4	Cc1cc(OCc2noc(=O)[nH]2)c(C)c(C)c1Cc1ccc(O)c(C2CCCC2)n1 [Example 32, 3-({4-[(6-cyclopentyl-5-hydroxypyridin-2-yl)methyl]-2,3,5-trimethylphenoxy}methyl)-1,2,4-oxadiazol-5(4H)-one]
